8 compounds from article PMC9686747, “Antioxidant, Anti-α-Glucosidase, Antityrosinase, and Anti-Inflammatory Activities of Bioactive Components from Morus alba” (Antioxidants, 2022) can be followed below.

One may read the IC50 as the concentration that gives 50% inhibition.

Read-outs that look alike come from different tables or passages of the source. Bounds are passed on as bounds.

For series [1], the system named is nitric oxide (NO) production in RAW 264.7 cells. In words: Nitric oxide inhibitory assay (Griess) in LPS-induced RAW264.7 cells. In kind it is cell-based, Murine. The note with it: Mus musculus, LPS (100 ng/mL)-induced RAW 264.7 cells, read-out: NO Inhibition IC50. The protocol:
(§1) Murine RAW264.7 macrophages were cultured at 37 °C under 5% CO2 using a culture medium that was a mixture of DMEM, 10% FBS, and 1% penicillin [29]. When the cells reached […] full growth, the seeded cells were subjected to NO measurement and iNOS protein assay.
The NO inhibition assay was performed as described in [29], with slight modification. RAW264.7 cells were seeded in 96 wells for 24 h. The next day, they were divided into the following groups: medium, medium with LPS (100 ng/mL) added, medium with the positive control (quercetin) and LPS added, and medium with samples and LPS (100 ng/mL) added. The reaction time between the medium and the sample was 1 h before adding LPS and waiting 20 h after adding LPS. Finally, half of the supernatant was transferred into a new 96-well plate and mixed in a 1:1 ratio with Griess reagent. After 15 min in the dark, the reaction was measured at 550 nm.
For orientation: The Griess reaction detects nitrite, a stable product of nitric oxide.

The subject of the next series is RAW 264.7 cells. In words: MTT assay, cell viability. In kind it is cell-based, Murine. On the procedure:
as §1
The MTT assay was performed according to the reference method, with slight modifications. Cells from the 96-well plates prepared for the NO inhibition assay were added to MTT stock solution (5 mg/mL) and diluted 20-fold with medium. After 2 h, all liquid was removed, and DMSO was added. The absorbance was measured at 570 nm.
In general terms: Formazan colour is commonly taken as a measure of viable cells.

A short description of series [2]: ABTS radical scavenging activity. In kind it is biochemical. As to conditions: for EC50: isolated components, read-out: SC50 ABTS. On the procedure:
This assay was performed using a previously reported procedure. This experiment needs to be performed in the dark. First, the reaction reagent was prepared by mixing 28 mM ABTS solution and 9.6 mM potassium persulfate solution (v/v, 1/1) and left in the dark at 4 °C for 16 h before use. The reaction reagent was diluted with ethanol until the absorbance was 0.70 ± 0.02 at 740 nm. Next, 10 μL of the extract or compound was mixed with 190 μL of the reaction reagent and incubated at room temperature for 5 min before measuring the absorbance at 740 nm. The formula of scavenging activity was calculated as follows.
ABTS radical scavenging activity (%) = (A0 − A1)/A0 × 100, where A0 and A1 are the absorbance of the control (untreated group) and test sample, respectively.

For series [3], the system named is inducible nitric oxide synthase (iNOS). In words: Western blot analysis of iNOS expression. In kind it is cell-based, Murine. The note with it: LPS (100 ng/mL)-induced cells, 24 h; compared to the LPS-induced group; Figure 4. On the procedure:
as §1
Western blot analysis was performed according to the reference method, with slight modifications. Cells were cotreated with varying concentrations of samples and LPS (100 ng/mL) for 24 h. After washing the cells with ice-cold PBS, the proteins were collected with cell lysis buffer and stored at −20 °C for subsequent experiments. The quantified proteins were separated using a 10% SDS-polyacrylamide gel. Next, the proteins were transferred to polyvinylidene fluoride (PVDF) membranes by electrophoresis. The transferred PVDF membranes were immersed in 2% BSA blocking buffer for 2 h and washed two to three times with TBST. Proteins were visualized by specific primary antibodies and soaked overnight. The next day, PVDF membranes were subjected to the TBST wash step again to remove residual primary antibodies and soaked with secondary antibodies for 2 h. Finally, after repeating the TBST wash two to three times, immunoreactivity was detected with ECL reagents, and samples were exposed with a cold light meter and quantified with Image J.
(In general: Immunoblotting shows a protein as a band on a membrane.)

Series [4] can be described thus: Superoxide radical scavenging activity. The note with it: isolated components; read-out: SC50 Superoxide. In kind it is biochemical. On the procedure: This assay was performed using a previously reported procedure. This experiment needs to be performed in the dark. Initially, NBT (300 μM), NADH (468 μM), and PMS (120 μM) were prepared using Tris-HCl buffer (16 mM, pH 8.0). Next, 50 μL of NBT and PMS and 10 μL of the extract or compound were mixed; subsequently, 50 μL of NADH solution was added and incubated at room temperature for 5 min before measuring the absorbance at 560 nm. The equation for the scavenging activity is as follows.
Superoxide radical scavenging activity = (A0 − A1)/A0 × 100, where A0 and A1 are the absorbance of the control (untreated group) and test sample, respectively.

The next series has as its target T1, α-glucosidase (Saccharomyces cerevisiae, UniProt P53341).
T1 construct: purchased Sigma-Aldrich
The experiment in a line: biochemical. In kind it is biochemical.

A short description of series [5]: Ferric reducing antioxidant power (FRAP). In kind it is biochemical. On the procedure:
The FRAP assay was performed using a previously described procedure. This experiment needs to be performed in the dark. First, the reaction reagent was obtained by mixing acetate buffer (pH 3.6), ferric chloride solution (20 mM), and TPTZ solution (10 mM TPTZ in 40 mM HCl) in a ratio of 10:1:1, respectively. Next, 900 μL of the reaction reagent was mixed with 100 μL of the sample or Trolox in an Eppendorf tube, and the absorbance was measured at 593 nm after 40 min in a dry bath at 37 °C. The FRAP of the extracts was determined by a linear standard calibration curve from 0 to 100 mM Trolox with an R^2 value of 0.9999.

The next series deals with T2, tyrosinase (Agaricus bisporus, UniProt C7FF04).
T2 construct: purchased Sigma-Aldrich
In words: Tyrosinase inhibitory activity assay. In kind it is biochemical.

Series [6] is described as follows: DPPH radical scavenging activity. As to conditions: for EC50: isolated components, read-out: SC50 DPPH. In kind it is biochemical. On the procedure:
This assay was performed using a previously reported procedure. This experiment needs to be performed in the dark. Briefly, 100 µL of varying concentrations of extracts or compounds were mixed with 100 µL of 200 µM DPPH solution and incubated at room temperature for 30 min, and the absorbance was measured at 520 nm. DPPH radical scavenging activity was calculated using the following equation.
DPPH scavenging activity (%) = (A0 − A1)/A0 × 100, where A1 is the absorbance of the test sample, and A0 is the absorbance of the control (untreated group).

[7] abbreviates: isolated compounds, read-out: IC50 α-Glucosidase.
Setting [8] is: isolated components, mM Trolox equivalents per gram.
[9] abbreviates: solvent extracts, 50% free radical scavenging.

T1 sequence (P53341 whole entry): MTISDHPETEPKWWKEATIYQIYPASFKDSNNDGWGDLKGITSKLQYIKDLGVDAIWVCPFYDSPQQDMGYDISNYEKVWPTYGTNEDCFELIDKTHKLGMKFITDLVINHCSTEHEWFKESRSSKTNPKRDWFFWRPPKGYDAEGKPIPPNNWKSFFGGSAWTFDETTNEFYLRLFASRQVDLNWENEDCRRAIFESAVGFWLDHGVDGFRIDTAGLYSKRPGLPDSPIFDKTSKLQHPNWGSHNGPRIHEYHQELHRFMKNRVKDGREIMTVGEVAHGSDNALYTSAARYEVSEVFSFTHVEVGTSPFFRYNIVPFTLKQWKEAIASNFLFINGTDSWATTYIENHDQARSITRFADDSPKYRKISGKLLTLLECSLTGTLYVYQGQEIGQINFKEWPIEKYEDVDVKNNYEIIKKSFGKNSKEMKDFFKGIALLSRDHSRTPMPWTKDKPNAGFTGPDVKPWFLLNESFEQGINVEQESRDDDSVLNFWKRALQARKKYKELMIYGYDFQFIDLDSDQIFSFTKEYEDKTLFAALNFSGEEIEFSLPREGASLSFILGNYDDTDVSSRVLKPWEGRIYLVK
T2 sequence (C7FF04 1-392 limits assumed): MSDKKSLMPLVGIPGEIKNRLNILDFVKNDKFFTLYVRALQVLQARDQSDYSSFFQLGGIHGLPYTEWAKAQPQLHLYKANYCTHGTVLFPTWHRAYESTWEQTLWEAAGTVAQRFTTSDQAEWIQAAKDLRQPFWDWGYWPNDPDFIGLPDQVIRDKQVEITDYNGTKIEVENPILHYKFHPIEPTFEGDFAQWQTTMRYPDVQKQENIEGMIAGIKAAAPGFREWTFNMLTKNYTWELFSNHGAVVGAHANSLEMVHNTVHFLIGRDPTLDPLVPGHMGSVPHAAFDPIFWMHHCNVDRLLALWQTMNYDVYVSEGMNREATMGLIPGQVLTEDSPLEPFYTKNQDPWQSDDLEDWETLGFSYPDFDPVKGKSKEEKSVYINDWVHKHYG

Regarding `O=c1c(O)c(-c2ccc(O)c(O)c2)oc2cc(O)cc(O)c12` [Quercetin, quercetin, reference compound], the half-maximal inhibitory concentration (IC50) in [1] (isolated components) was determined as 13.2 ± 2 µM; in series [1] (solvent extracts), 3.98 ± 0.28 µg/mL. For the same compound, the “cell viability (MTT)” value in the series on RAW 264.7 cells (isolated compounds, Figure 3, except for the high dose of 100 μM) is “slight cytotoxicity at higher doses”; in the series with RAW 264.7 cells (solvent extracts, Figure 1), “slight cytotoxicity at higher doses”.
Turning to `CC(C)=CCc1c(-c2ccc(O)cc2O)oc2c3c(cc(O)c2c1=O)OC(C)(C)C=C3` [Morusin (2), morusin], the EC50 in series [2] was 44.2 ± 8.07 µM; in series [4], above 200 µM; in [6], above 200 µM. Moreover, in series [3], the “iNOS expression (Western blot)” value is recorded as “significantly reducing the expression of iNOS”. In addition, the values for the IC50 (in series [1] (isolated components); on α-glucosidase (setting [7]); at tyrosinase) were 9.87 ± 0.59 µM, 15.7 ± 2.15 µM and above 400 µM, respectively. In series [5] (setting [8]), the “TE FRAP” value turned out to be 583.43 ± 25.79 mM/g.
Consider `O=c1ccc2ccc(O)cc2o1` [Umbelliferone (4), umbelliferone], for which the EC50 in series [2], in [4] and in [6] was above 200 µM each time. Besides, the IC50 in series [1] (isolated components) was 36.8 ± 2.26 µM; on α-glucosidase (setting [7]) it was 492 ± 12.8 µM; at tyrosinase (isolated compounds, read-out: IC50 Tyrosinase), above 400 µM. Further, the “TE FRAP” value in series [5] (setting [8]) was 145.23 ± 35.46 mM/g.
Consider `CC(C)=CCc1c(O)ccc(C(=O)[C@@H]2[C@@H](c3c(O)cc(O)c4c(=O)c(CC=C(C)C)c(-c5ccc(O)cc5O)oc34)C=C(C)C[C@H]2c2ccc(O)cc2O)c1O` [Kuwanon H (6), kuwanon H], for which the EC50 in [2] is 8.68 ± 0.93 µM; in series [4], above 200 µM; in series [6], above 200 µM. The IC50 in [1] (isolated components) is 40.5 ± 4.38 µM; at α-glucosidase (setting [7]), 4.06 ± 0.12 µM; on tyrosinase it was 218 ± 41 µM. Moreover, the “α-glucosidase inhibition, times more effective than acarbose” value on α-glucosidase (versus positive control acarbose) is “approximately 100 times”. Further, the “α-glucosidase inhibition, times more potent than other compounds” value on α-glucosidase (versus the other isolated compounds) is 2–20 times. Besides, in series [5] (setting [8]), the “TE FRAP” value is on record as 1750.96 ± 36.30 mM/g.
Regarding `Oc1cc(O)cc(/C=C/c2ccc(O)cc2O)c1` [Oxyresveratrol (3), oxyresveratrol], the EC50 in series [2] was 9.5 ± 2.08 µM; in series [4] it was above 200 µM; in series [6], 44.4 ± 12.5 µM. The IC50 in series [1] (isolated components) amounted to 25.4 ± 3.47 µM; at α-glucosidase, 8.35 ± 0.46 µM; against tyrosinase it was 1.89 ± 0.59 µM. The “TE FRAP” value in series [5] (setting [8]) amounted to 2402.22 ± 32.91 mM/g; in series [5] (isolated components, mM Trolox equivalents per gram, listed as 3), 2402.22 ± 32.91 mM/g.
As for `CC(C)=CCc1c(-c2ccc(O)cc2O)oc2c([C@H]3C=C(C)C[C@@H](c4ccc(O)cc4O)[C@@H]3C(=O)c3ccc(O)cc3O)c(O)cc(O)c2c1=O` [Kuwanon G (5), kuwanon G], the EC50 was 9.28 ± 1.02 µM in series [2], 188 ± 19.1 µM in series [4] and above 200 µM in series [6]. In addition, the half-maximal inhibitory concentration (IC50) in [1] (isolated components) was 17.8 ± 0.5 µM; against α-glucosidase it was 7 ± 0.31 µM; at tyrosinase, 100 ± 9.62 µM. The “TE FRAP” value turned out to be 3549.22 ± 160.65 mM/g in series [5] (setting [8]) and 3549.22 ± 160.65 mM/g in [5] (isolated components, mM Trolox equivalents per gram, listed as 5).
For the compound `O=c1c(O)c(-c2ccc(O)cc2O)oc2cc(O)cc(O)c12` [Morin (1), morin], the EC50 in [2] was 12.7 ± 5.98 µM; in [4], 54.5 ± 19 µM; in [6] it was 17.5 ± 3.43 µM. The IC50 was 43.3 ± 4.61 µM in [1] (isolated components), 90.1 ± 10.2 µM against α-glucosidase and 199 ± 84.4 µM at tyrosinase. Further, the “TE FRAP” value was found to be 2963.28 ± 63.65 mM/g in [5] (setting [8]) and 2963.28 ± 63.65 mM/g in series [5] (isolated components, mM Trolox equivalents per gram, listed as 1).
As to `Cc1cc(C(C)(C)C)c(O)c(C(C)(C)C)c1` [BHT, butylated hydroxytoluene, reference compound], the EC50 in series [2] is 116 ± 25.1 µM; in series [6], 89.8 ± 7.03 µM. Moreover, in series [2] (setting [9]), the “SC50 ABTS” value came to 25.87 ± 5.83 µg/mL. For the same compound, the “TE FRAP” value in series [5] (setting [8]) was determined as 4385.56 ± 78.88 mM/g; in series [5] (solvent extracts, mM Trolox equivalents per gram of extract), 4385.56 ± 45.54 mM/g. For the same compound, in series [6] (setting [9]), the “SC50 DPPH” value is 19.75 ± 1.79 µg/mL.
